Laboratory results published in patent US20110177155A1, “METHODS OF DELIVERY OF AGENTS TO LEUKOCYTES AND ENDOTHELIAL CELLS” (IMMUNE DISEASE INSTITUTE, INC., priority 2007, published 2011).

How the values were obtained:
[1] = tested on: siRNA-mediated mRNA degradation; conditions: cited from earlier work
INF-β, OAS1 and STAT1 = assay: Interferon assay (quantitative RT-PCR of IFN-responsive genes in splenocytes); type: cell-based, mouse
Method: Spleenocytes (1×10^6 cells/ml) were mock treated or treated with β7 It-sNP and luciferase-siRNA (1000 pmol) or 5 μg/ml poly (I:C). After 48 h RNA was isolated and analyzed by quantitative RT-PCR for induction of IFN or interferon responsive genes as described below.
Total RNA (1 μg) isolated using RNeasy RNA isolation kit (Qiagen) or for tissues, RNAlater RNA stabilization reagent was used followed by RNeasy fibrous tissue mini kit (Qiagen) and reverse transcribed using Superscript III (Invitrogen) and random hexamers, according to the manufacturer's protocol. […] SYBR green (Molecular Probes) was used to detect PCR products. All reactions were done in a 25 μl reaction volume in triplicate. Primers for mouse GAPDH, STAT1, OAS1 and INF β were previously described (Song et al., 2005). The following primer pairs have been used: IL-12p40: Forward: 5′-[…]-3′ (SEQ ID NO:9); Reverse: 5′-[…]-3′ (SEQ ID NO:10); TNF α: Forward 5′-[…]-3′ (SEQ ID NO:11), Reverse 5′-[…]-3′ (SEQ ID NO:12); Cyclin D1: Forward 5′-CTTCCTCTCCAAAATGCCAG-3′ (SEQ ID NO:13), Reverse 5′-AGAGATGGAAGGGGGAAAGA-3′ (SEQ ID NO:14). PCR parameters consisted of 5 min of Taq activation at 95° C., followed by 40 cycles of PCR at 95° C.×20 sec, 60° C.×30 sec, and 69° C.×20 sec. Standard curves were generated and the relative amount of target gene mRNA was normalized to GAPDH mRNA. […]

induction of interferon-responsive genes (IRG: INF-β, OAS1, STAT1 mRNA) (INF-β, OAS1 and STAT1) | Compound | enhancement of siRNA-mediated mRNA degradation ([1]; with siRNA) | effect in mRNA degradation by itself ([1]; without siRNA)
– | CCn1cc(C(=O)O)c(=O)c2cc(F)c(N3CCNCC3)nc21 [Enoxacin] | enhances siRNA-mediated degradation | essentially no effect
induced | poly (I:C) | – | –
